Tests used:
Type in all cases: physicochemical
[1] = Vapor stress / vapor diffusion stressing of amorphous materials, form by XRPD; conditions: methanol and tetrahydrofuran, both with water as antisolvent
Protocol: (§1) Vapor stressing experiments were done on amorphous material from two preparations: lyophilization from p-dioxane:water 1:1 and crash precipitation from ethyl acetate with heptane. […] The majority of the stressed samples appeared as clear red solutions after 6 days. Those solutions were placed in vials of antisolvent for vapor diffusion. Dry and wet milling experiments were conducted on amorphous materials from the two preparations mentioned above. Amorphous materials were recovered from the dry milling experiments.

[2] = Automated moisture sorption/desorption (MB / DVS); conditions: for XRPD following DVS: line after DVS; for hygroscopicity: result in words; for form by XRPD after moisture sorption/desorption: sorption from 5% RH to 95% RH, desorption from 95% RH to 5% RH
Protocol: Based on the data, relative humidity stressing studies of the two amorphous materials at 40° C./75% RH are recommended. Moisture sorption/desorption data were collected on a VTI SGA-100 Vapor Sorption Analyzer. Sorption and desorption data were collected over a range of 5% to 95% relative humidity (RH) at 10% RH intervals under a nitrogen purge. Samples were not dried prior to analysis. Equilibrium criteria used for analysis were less than 0.0100% weight change in 5 minutes, with a maximum equilibration time of 3 hours if the weight criterion was not met. Data were not corrected for the initial moisture content of the samples. NaCl and PVP were used as calibration standards.

[3] = Milling experiments on amorphous materials, form by XRPD; conditions: 10 min. at 30 Hz, scraped sides
Protocol: as §1
A solid sample of rifaximin was charged to a milling container with a milling ball. […] Solids were scraped from the sides of the vial after each interval.

Row | form obtained in vapor diffusion experiments [1] | wt loss upon equilibration at 5% RH ([2]; MB, Table 5, milled amorphous) | XRPD following DVS ([2]; Table 2, first sample block (lyophilization sample)) | XRPD following DVS ([2]; Table 2, second sample block (crash precipitation sample)) | weight gain under 95% RH ([2]; amorphous rifaximin made by milling, moisture balance) [%] | hygroscopicity [2] | form by XRPD after moisture sorption/desorption [2] | form by XRPD after moisture sorption/desorption ([2]; listed as Amorphous) | form by XRPD after moisture sorption/desorption ([2]; listed as Rifaximin Amorphous) | XRPD Result after dry milling [3] | SMILES
1 | Form β | 0.7% wt loss upon equilibration | no peaks, possibly amorphous | no peaks, possibly amorphous | 11.6 | hygroscopic | amorphous | amorphous | amorphous |  | CO[C@H]1/C=C/O[C@@]2(C)Oc3c(C)c(O)c4c(O)c(c5c(nc6cc(C)ccn65)c4c3C2=O)NC(=O)/C(C)=C\C=C\[C@H](C)[C@H](O)[C@@H](C)[C@@H](O)[C@@H](C)[C@H](OC(C)=O)[C@@H]1C [Amorphous rifaximin]
2 |  |  |  |  |  | moderately hygroscopic | Crystallization was not observed |  |  | amorphous | CO[C@H]1/C=C/O[C@@]2(C)Oc3c(C)c(O)c4c(O)c(c5c(nc6cc(C)ccn65)c4c3C2=O)NC(=O)/C(C)=C\C=C\[C@H](C)[C@H](O)[C@@H](C)[C@@H](O)[C@@H](C)[C@H](OC(C)=O)[C@@H]1C [crash amorphous rifaximin]
3 |  |  |  |  |  | moderately hygroscopic | Crystallization was not observed |  |  | amorphous | CO[C@H]1/C=C/O[C@@]2(C)Oc3c(C)c(O)c4c(O)c(c5c(nc6cc(C)ccn65)c4c3C2=O)NC(=O)/C(C)=C\C=C\[C@H](C)[C@H](O)[C@@H](C)[C@@H](O)[C@@H](C)[C@H](OC(C)=O)[C@@H]1C [lyophilized amorphous rifaximin]
4 |  |  |  |  |  |  | α dry |  |  |  | CO[C@H]1/C=C/O[C@@]2(C)Oc3c(C)c(O)c4c(O)c(c5c(nc6cc(C)ccn65)c4c3C2=O)NC(=O)/C(C)=C\C=C\[C@H](C)[C@H](O)[C@@H](C)[C@@H](O)[C@@H](C)[C@H](OC(C)=O)[C@@H]1C [α dry]
